Test results: paper PMC5983484, “A receptor tyrosine kinase ROR1 inhibitor (KAN0439834) induced significant apoptosis of pancreatic cells which was enhanced by erlotinib and ibrutinib” (PLoS ONE, 2018)

Target: ROR1 (Homo sapiens, UniProt Q01973)
Experiment: Western blot of pROR1 in PaCa-2 cells ([…] h), confirmed by human phospho-RTK array
Type: cell-based

Chain of ROR1 (Q01973 30-937): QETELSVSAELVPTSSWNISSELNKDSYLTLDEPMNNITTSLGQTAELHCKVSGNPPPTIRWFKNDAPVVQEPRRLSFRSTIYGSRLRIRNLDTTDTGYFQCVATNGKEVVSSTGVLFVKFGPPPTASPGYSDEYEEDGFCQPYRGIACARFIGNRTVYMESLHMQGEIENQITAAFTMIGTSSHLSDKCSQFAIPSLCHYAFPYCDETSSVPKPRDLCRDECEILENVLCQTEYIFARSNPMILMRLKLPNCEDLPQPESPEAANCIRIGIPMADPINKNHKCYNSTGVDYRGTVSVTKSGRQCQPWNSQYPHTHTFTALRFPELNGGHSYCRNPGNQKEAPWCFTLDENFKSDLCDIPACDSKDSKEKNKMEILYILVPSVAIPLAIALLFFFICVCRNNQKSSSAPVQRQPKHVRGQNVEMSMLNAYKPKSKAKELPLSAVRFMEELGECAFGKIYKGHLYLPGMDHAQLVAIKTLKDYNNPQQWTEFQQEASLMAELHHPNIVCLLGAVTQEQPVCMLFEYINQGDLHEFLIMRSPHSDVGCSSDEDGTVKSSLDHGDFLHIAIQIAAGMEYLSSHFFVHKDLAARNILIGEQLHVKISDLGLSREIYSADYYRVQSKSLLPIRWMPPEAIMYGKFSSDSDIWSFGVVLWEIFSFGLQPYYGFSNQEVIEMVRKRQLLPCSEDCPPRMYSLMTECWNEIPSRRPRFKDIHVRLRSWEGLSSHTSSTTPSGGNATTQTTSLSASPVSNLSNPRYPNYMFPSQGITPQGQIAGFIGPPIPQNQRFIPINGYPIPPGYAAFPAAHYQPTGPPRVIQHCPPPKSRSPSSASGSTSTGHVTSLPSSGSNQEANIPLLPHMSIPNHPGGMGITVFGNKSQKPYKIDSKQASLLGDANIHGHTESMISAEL

- IC50: < 0.1 µM
Substance: KAN0439834
